Reference: the NIST ThermoML archive (doi:10.1016/j.fluid.2008.08.007)
± gives the expanded uncertainty stated by the source.

Experiment: xn = mol fraction of the nth substance listed
Conditions: x1 = 0.75; for surface tension liquid-gas: Ring tensiometer; for mass density: 101 kPa, Liquid, westphal balance

[Cl-].[Cl-].[Zn+2] [zinc chloride] + CCCCn1cc[n+](C)c1.[Cl-]
Conditions	mass density [kg/m3]	surface tension liquid-gas [mN/m]
318.2 K	1779.1 ± 0.5	78.3 ± 0.99
323.2 K	1773.6 ± 0.5	78 ± 0.99
328.2 K	1766.9 ± 0.5	77.7 ± 0.99
333.2 K	1758 ± 0.5	77.2 ± 0.98
338.2 K	1749.2 ± 0.5	76.8 ± 0.98
343.2 K	1742.1 ± 0.5	76.4 ± 0.97
